# Assays:
# Assay in all cases: cells
# LB2241-RCC = format: functional, cell-based, Homo sapiens; settings: Homo sapiens, LB2241-RCC;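 note: cell viability assay measuring how strongly the cultured human renal carcinoma line is prevented from growing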
# Description: SANGER: Inhibition of human LB2241-RCC cell growth in a cell viability assay.
# MOLT-4 = format: functional, cell-based, Homo sapiens; settings: Homo sapiens, MOLT-4;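 note: growth inhibition of MOLT-4 cells, determined with a cell viability readout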
# Description: SANGER: Inhibition of human MOLT-4 cell growth in a cell viability assay.
# LAMA-84 = format: functional, cell-based, Homo sapiens; settings: Homo sapiens, LAMA-84;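 note: growth inhibition of LAMA-84 cells, read out with a cell viability assay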
# Description: SANGER: Inhibition of human LAMA-84 cell growth in a cell viability assay.
# SH-4 = format: functional, cell-based; settings: Homo sapiens;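 note: growth inhibition of SH-4 cells, read out with a cell viability assay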
# Description: SANGER: Inhibition of human SH-4 cell growth in a cell viability assay.
# HCC1187 = format: functional, cell-based, Homo sapiens; settings: Homo sapiens, HCC1187;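 note: growth inhibition of HCC1187 cells, read out with a cell viability assay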
# Description: SANGER: Inhibition of human HCC1187 cell growth in a cell viability assay.
# 697 = format: functional, cell-based, Homo sapiens; settings: Homo sapiens
# Description: SANGER: Inhibition of human 697 cell growth in a cell viability assay.
# L-363 = format: functional, cell-based, Homo sapiens; settings: Homo sapiens, L-363
# Description: SANGER: Inhibition of human L-363 cell growth in a cell viability assay.
# DEL = format: functional, cell-based, Homo sapiens; settings: Homo sapiens, DEL;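 note: growth inhibition of the human DEL cell line, read out with a cell viability assay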
# Description: SANGER: Inhibition of human DEL cell growth in a cell viability assay.
# A704 = format: functional, cell-based; settings: Homo sapiens;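 note: growth inhibition of human A704 cells, read out with a cell viability assay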
# Description: SANGER: Inhibition of human A704 cell growth in a cell viability assay.
# HOP-62 = format: functional, cell-based, Homo sapiens; settings: Homo sapiens, HOP-62;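 note: cell growth inhibition determined with a viability assay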
# Description: SANGER: Inhibition of human HOP-62 cell growth in a cell viability assay.
# OCUB-M = format: functional, cell-based; settings: Homo sapiens;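 note: growth inhibition of the cancer cell line, read out through a cell viability assay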
# Description: SANGER: Inhibition of human OCUB-M cell growth in a cell viability assay.
# LU-139 = format: functional, cell-based, Homo sapiens; settings: Homo sapiens, LU-139
# Description: SANGER: Inhibition of human LU-139 cell growth in a cell viability assay.
# SHP77 = format: functional, cell-based, Homo sapiens, SHP-77; settings: Homo sapiens, SHP77;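 note: growth inhibition of human SHP-77 cells measured by a cell viability assay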
# Description: SANGER: Inhibition of human SHP-77 cell growth in a cell viability assay.
# LB771-HNC = format: functional, cell-based; settings: Homo sapiens;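 note: growth inhibition of LB771-HNC human cells, read out with a cell viability assay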
# Description: SANGER: Inhibition of human LB771-HNC cell growth in a cell viability assay.
# K562 = format: functional, cell-based, Homo sapiens; settings: Homo sapiens, K562
# Description: SANGER: Inhibition of human K-562 cell growth in a cell viability assay.
# OCI-AML2 = format: functional, cell-based, Homo sapiens; settings: Homo sapiens, OCI-AML2;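 note: growth inhibition of OCI-AML2 cells, read out with a cell viability assay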
# Description: SANGER: Inhibition of human OCI-AML2 cell growth in a cell viability assay.
# NCI-H2126 = format: functional, cell-based, Homo sapiens; settings: Homo sapiens, NCI-H2126;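 note: growth inhibition of the cancer cell line, determined with a cell viability readout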
# Description: SANGER: Inhibition of human NCI-H2126 cell growth in a cell viability assay.
# SW684 = format: functional, cell-based, Homo sapiens; settings: Homo sapiens, SW684; read-out: IC50;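 note: growth inhibition of human SW684 cells, measured by a cell viability assay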
# Description: SANGER: Inhibition of human SW684 cell growth in a cell viability assay.
# TK-10 = format: functional, cell-based, Homo sapiens; settings: Homo sapiens, TK-10;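 note: growth inhibition of TK-10 cells, read out in a cell viability assay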
# Description: SANGER: Inhibition of human TK10 cell growth in a cell viability assay.
# SK-LMS-1 = format: functional, cell-based, Homo sapiens; settings: Homo sapiens, SK-LMS-1;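 note: growth inhibition of human SK-LMS-1 cells, read out with a cell viability assay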
# Description: SANGER: Inhibition of human SK-LMS-1 cell growth in a cell viability assay.
# SF-126 = format: functional, cell-based, Homo sapiens; settings: Homo sapiens, SF-126;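 note: growth inhibition of human SF126 cells, read out with a cell viability assay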
# Description: SANGER: Inhibition of human SF126 cell growth in a cell viability assay.
# GAK = format: functional, cell-based, Homo sapiens; settings: Homo sapiens, GAK;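 note: cell growth inhibition read out by a cell viability assay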
# Description: SANGER: Inhibition of human GAK cell growth in a cell viability assay.
# EOL1 = format: functional, cell-based, Homo sapiens; settings: Homo sapiens, EOL1;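 note: growth inhibition of EoL-1 cells, read out by a cell viability assay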
# Description: SANGER: Inhibition of human EoL-1-cell cell growth in a cell viability assay.
# MZ1-PC = format: functional, cell-based, Homo sapiens; settings: Homo sapiens, MZ1-PC;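 note: cell viability assay measuring growth inhibition of human MZ1-PC cells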
# Description: SANGER: Inhibition of human MZ1-PC cell growth in a cell viability assay.
# MMAC-SF = format: functional, cell-based; settings: Homo sapiens;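 note: growth inhibition of human MMAC-SF cells, read out with a cell viability assay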
# Description: SANGER: Inhibition of human MMAC-SF cell growth in a cell viability assay.
# A3-KAW = format: functional, cell-based, Homo sapiens; settings: Homo sapiens, A3-KAW;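 note: growth inhibition of human A3-KAW cells, read out with a cell viability assay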
# Description: SANGER: Inhibition of human A3-KAW cell growth in a cell viability assay.
# GI-1 = format: functional, cell-based, Homo sapiens; settings: Homo sapiens, GI-1;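 note: growth inhibition of human GI-1 cells, measured with a cell viability readout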
# Description: SANGER: Inhibition of human GI-1 cell growth in a cell viability assay.
# OMC-1 = format: functional, cell-based, Homo sapiens; settings: Homo sapiens, OMC-1;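 note: growth inhibition of the OMC-1 cell line, measured by a cell viability assay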
# Description: SANGER: Inhibition of human OMC-1 cell growth in a cell viability assay.
# HT = format: functional, cell-based, Homo sapiens; settings: Homo sapiens, HT
# Description: SANGER: Inhibition of human HT cell growth in a cell viability assay.
# LB2518-MEL = format: functional, cell-based; settings: Homo sapiens;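 note: growth inhibition of human LB2518-MEL cells, measured with a cell viability assay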
# Description: SANGER: Inhibition of human LB2518-MEL cell growth in a cell viability assay.
# SW 962 = format: functional, cell-based, Homo sapiens; settings: Homo sapiens, SW 962;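 note: growth inhibition of human SW962 cells, read out by a cell viability assay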
# Description: SANGER: Inhibition of human SW962 cell growth in a cell viability assay.
# no-10 = format: functional, cell-based, Homo sapiens; settings: Homo sapiens;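 note: growth inhibition of no-10 cells, read out with a cell viability assay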
# Description: SANGER: Inhibition of human no-10 cell growth in a cell viability assay.
# HT-144 = format: functional, cell-based, Homo sapiens; settings: Homo sapiens, HT-144
# Description: SANGER: Inhibition of human HT-144 cell growth in a cell viability assay.
# RPMI-8866 = format: functional, cell-based, Homo sapiens; settings: Homo sapiens, RPMI-8866
# Description: SANGER: Inhibition of human RPMI-8866 cell growth in a cell viability assay.
# COLO-684 = format: functional, cell-based, Homo sapiens; settings: Homo sapiens, COLO-684
# Description: SANGER: Inhibition of human COLO-684 cell growth in a cell viability assay.
# LS-123 = format: functional, cell-based, Homo sapiens; settings: Homo sapiens, LS-123
# Description: SANGER: Inhibition of human LS-123 cell growth in a cell viability assay.
# ES4 = format: functional, cell-based, Homo sapiens; settings: Homo sapiens, ES4;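 note: growth inhibition of human ES4 cells, read out by a cell viability assay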
# Description: SANGER: Inhibition of human ES4 cell growth in a cell viability assay.
# NCI-H1299 = format: functional, cell-based; settings: Homo sapiens;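 note: growth inhibition of human NCI-H1299 cells, read out by a cell viability assay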
# Description: SANGER: Inhibition of human NCI-H1299 cell growth in a cell viability assay.
# SK-PN-DW = format: functional, cell-based, Homo sapiens; settings: Homo sapiens, SK-PN-DW;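 note: growth inhibition measured with a viability assay on these cells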
# Description: SANGER: Inhibition of human SK-PN-DW cell growth in a cell viability assay.
# U-266 = format: functional, cell-based, Homo sapiens; settings: Homo sapiens, U-266
# Description: SANGER: Inhibition of human U-266 cell growth in a cell viability assay.
# SK-MEL-2 = format: functional, cell-based, Homo sapiens; settings: Homo sapiens, SK-MEL-2;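 note: growth inhibition of human SK-MEL-2 cells measured with a cell viability assay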
# Description: SANGER: Inhibition of human SK-MEL-2 cell growth in a cell viability assay.
# SCC-15 = format: functional, cell-based, Homo sapiens; settings: Homo sapiens, SCC-15;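 note: growth inhibition of SCC-15 cells, read out with a cell viability assay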
# Description: SANGER: Inhibition of human SCC-15 cell growth in a cell viability assay.
# RKO = format: functional, cell-based, Homo sapiens; settings: Homo sapiens, RKO;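 note: growth inhibition of human RKO cells, read out with a cell viability assay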
# Description: SANGER: Inhibition of human RKO cell growth in a cell viability assay.
# RH-1 = format: functional, cell-based, Homo sapiens; settings: Homo sapiens, RH-1;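 note: growth inhibition of human RH-1 cells, read out with a cell viability assay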
# Description: SANGER: Inhibition of human RH-1 cell growth in a cell viability assay.
# TE-1 = format: functional, cell-based, Homo sapiens; settings: Homo sapiens, TE-1;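 note: growth inhibition of the human TE-1 cell line, read out with a cell viability assay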
# Description: SANGER: Inhibition of human TE-1 cell growth in a cell viability assay.
# BT-474 = format: functional, cell-based, Homo sapiens; settings: Homo sapiens, BT-474
# Description: SANGER: Inhibition of human BT-474 cell growth in a cell viability assay.
# J-RT3-T3-5 = format: functional, cell-based, Homo sapiens; settings: Homo sapiens, J-RT3-T3-5;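 note: cell viability assay measuring growth inhibition of human J-RT3-T3-5 cells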
# Description: SANGER: Inhibition of human J-RT3-T3-5 cell growth in a cell viability assay.
# CAS-1 = format: functional, cell-based, Homo sapiens; settings: Homo sapiens, CAS-1;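 note: growth inhibition of CAS-1 cells, measured with a cell viability assay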
# Description: SANGER: Inhibition of human CAS-1 cell growth in a cell viability assay.
# DJM-1 = format: functional, cell-based, Homo sapiens; settings: Homo sapiens, DJM-1;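 note: growth inhibition of human DJM-1 cells, read out by a cell viability assay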
# Description: SANGER: Inhibition of human DJM-1 cell growth in a cell viability assay.
# ES1 = format: functional, cell-based, Homo sapiens; settings: Homo sapiens, ES1;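 note: growth inhibition of ES1 cells, read out with a cell viability assay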
# Description: SANGER: Inhibition of human ES1 cell growth in a cell viability assay.
# IST-MEL1 = format: functional, cell-based, Homo sapiens; settings: Homo sapiens, IST-MEL1;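 note: growth inhibition of the cell line, read out with a cell viability assay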
# Description: SANGER: Inhibition of human IST-MEL1 cell growth in a cell viability assay.
smiles,measurement,setting,value
C/C(=C\c1csc(C)n1)[C@@H]1C[C@@H]2O[C@]2(C)CCC[C@H](C)[C@H](O)[C@@H](C)C(=O)C(C)(C)[C@@H](O)CC(=O)O1 [PATUPILONE],IC50,LB2241-RCC,5.55 nM
same,IC50,MOLT-4,2.52 nM
same,IC50,LAMA-84,18.9 nM
same,IC50,SH-4,7.73 nM
same,IC50,HCC1187,22.6 nM
same,IC50,697,1.78 nM
same,IC50,L-363,5.88 nM
same,IC50,DEL,4.29 nM
same,IC50,A704,14.6 nM
same,IC50,HOP-62,1.04 nM
same,IC50,OCUB-M,1.03 nM
same,IC50,LU-139,> 32 nM
same,IC50,SHP77,4.92 nM
same,IC50,LB771-HNC,8.46 nM
same,IC50,K562,6.89 nM
same,IC50,OCI-AML2,3.07 nM
same,IC50,NCI-H2126,15.6 nM
same,IC50,SW684,> 32 nM
same,IC50,TK-10,2.05 nM
same,IC50,SK-LMS-1,0.646 nM
same,IC50,SF-126,3.47 nM
same,IC50,GAK,13.5 nM
same,IC50,EOL1,12.9 nM
same,IC50,MZ1-PC,0.607 nM
same,IC50,MMAC-SF,23 nM
same,IC50,A3-KAW,6.06 nM
same,IC50,GI-1,2.43 nM
same,IC50,OMC-1,> 32 nM
same,IC50,HT,20.5 nM
same,IC50,LB2518-MEL,17.6 nM
same,IC50,SW 962,1.04 nM
same,IC50,no-10,5.56 nM
same,IC50,HT-144,1.72 nM
same,IC50,RPMI-8866,19.8 nM
same,IC50,COLO-684,6.97 nM
same,IC50,LS-123,0.96 nM
same,IC50,ES4,0.739 nM
same,IC50,NCI-H1299,0.88 nM
same,IC50,SK-PN-DW,1.06 nM
same,IC50,U-266,9.72 nM
same,IC50,SK-MEL-2,7.19 nM
same,IC50,SCC-15,5.98 nM
same,IC50,RKO,0.0647 nM
same,IC50,RH-1,0.997 nM
same,IC50,TE-1,2.02 nM
same,IC50,BT-474,13.2 nM
same,IC50,J-RT3-T3-5,13.5 nM
same,IC50,CAS-1,24.5 nM
same,IC50,DJM-1,3.13 nM
same,IC50,ES1,0.221 nM
same,IC50,IST-MEL1,4.06 nM
CN(NC(=O)CC(=O)NN(C)C(=S)c1ccccc1)C(=S)c1ccccc1 [ELESCLOMOL],IC50,LB2241-RCC,56.4 nM
same,IC50,MOLT-4,105 nM
same,IC50,LAMA-84,52.7 nM
same,IC50,SH-4,> 200 nM
same,IC50,HCC1187,79.3 nM
same,IC50,697,6.13 nM
same,IC50,L-363,12.3 nM
same,IC50,DEL,19.2 nM
same,IC50,A704,27.5 nM
same,IC50,HOP-62,122 nM
same,IC50,OCUB-M,195 nM
same,IC50,LU-139,121 nM
same,IC50,SHP77,> 200 nM
same,IC50,LB771-HNC,> 200 nM
same,IC50,K562,> 200 nM
same,IC50,OCI-AML2,136 nM
same,IC50,NCI-H2126,16.3 nM
same,IC50,SW684,> 200 nM
same,IC50,TK-10,42.3 nM
same,IC50,SK-LMS-1,> 200 nM
same,IC50,SF-126,1.95 nM
same,IC50,GAK,> 200 nM
same,IC50,EOL1,62 nM
same,IC50,MZ1-PC,144 nM
same,IC50,MMAC-SF,84.3 nM
same,IC50,A3-KAW,86.5 nM
same,IC50,GI-1,8.26 nM
same,IC50,OMC-1,77.1 nM
same,IC50,HT,> 200 nM
same,IC50,LB2518-MEL,66.9 nM
same,IC50,SW 962,111 nM
same,IC50,no-10,> 200 nM
same,IC50,HT-144,13 nM
same,IC50,RPMI-8866,30 nM
same,IC50,COLO-684,9.21 nM
same,IC50,LS-123,48.5 nM
same,IC50,ES4,4.39 nM
same,IC50,NCI-H1299,18.5 nM
same,IC50,SK-PN-DW,9.02 nM
same,IC50,U-266,15.8 nM
same,IC50,SK-MEL-2,73.2 nM
same,IC50,SCC-15,25.6 nM
same,IC50,RKO,21 nM
same,IC50,RH-1,58.2 nM
same,IC50,TE-1,46 nM
same,IC50,BT-474,19.2 nM
same,IC50,J-RT3-T3-5,14.4 nM
same,IC50,CAS-1,116 nM
same,IC50,DJM-1,54.3 nM
same,IC50,ES1,0.749 nM
same,IC50,IST-MEL1,11.3 nM

# Reference: ChEMBL document CHEMBL1201861, “Genomics of Drug Sensitity in Cancer screening data, Wellcome Trust Sanger Institute”
